Assay results published in patent US20030096704A1, “Novel use of herbicides” (priority 2000, published 2003).

How the values were obtained:
[1] = system: Rice ATCC 97523 (ALS-inhibitor-resistant rice variety SPCW-1); assay: Post-emergence herbicidal action on rice (paddy system): phytotoxicity on ALS-inhibitor-resistant rice; type: in vivo, Oryza sativa; conditions: 8 g/ha, evaluated after about 21 days, 0% no action, 100% plant completely died
Protocol: (§1) Post-emergence Herbicidal Action on Rice:
(§2) Weeds are sown and raised in soil saturated with water in plastics troughs. The rice plants are sown and grown separately from the weeds and after 10 days transplanted into the plastics troughs containing the weeds. The test compounds are then applied to the plants in the form of an aqueous suspension. One day after application, the water level is raised by 3 cm (paddy system).
(§3) The test plants are then grown on in a greenhouse under optimum conditions. […] For comparison with the prior art, the compound sulfometuron-methyl (known from The Pesticide Manual, 10th ed., the British Crop Protection Council, page 931) is tested. Sulfometuron-methyl belongs to the same class of ALS-inhibitors as the compound of formula I. The compound of formula I and sulfometuron-methyl are tested at a rate of application of 8 g/ha.
The ALS-inhibitor-resistant rice variety used is Oryza sativa, Linnaeus name: SPCW-1, deposited under the number ATCC 97523, depositor: Louisiana State Univ.

[2] = system: Rice “Lemont” (conventional rice variety); assay: Post-emergence herbicidal action on rice (paddy system): phytotoxicity on conventional rice; type: in vivo, Oryza sativa; conditions: 8 g/ha, evaluated after about 21 days, 0% no action, 100% plant completely died
Protocol: as §1, §2, §3
The variety “Lemont” is used as conventional rice variety.

[3] = system: Monochoria vaginalis (MOOVA); assay: Post-emergence herbicidal action on rice (paddy system): weed control; type: in vivo; conditions: 8 g/ha; leaf stage 2, height 1 cm at application; about 21 days
Protocol: as §1, §2, §3

[4] = system: Cyperus serotinus (CYPSE); assay: as above; type: in vivo; conditions: 8 g/ha; leaf stage 3, height 11 cm at application; about 21 days
Protocol: as §1, §2, §3

[5] = system: Echinochloa crus galli (ECHCG); assay: as above; type: in vivo; conditions: 8 g/ha, about 21 days
Protocol: as §1, §2, §3

COC(=O)c1ccccc1S(=O)(=O)NC(=O)Nc1nc(C)cc(C)n1 [sulfometuron-methyl]
% Phytotoxicity Rice ATCC 97523 [1]: 95% | % Phytotoxicity Rice “Lemont” [2]: 100% | % Weed control MOOVA [3]: 100% | % Weed control CYPSE [4]: 95% | % Weed control ECHCG 1 ([5]; Echinochloa crus galli post 1.0 leaf (leaf stage 1.5, height 6 cm at application)): 100% | % Weed control ECHCG 3 ([5]; Echinochloa crus galli post 3.0 leaf (leaf stage 3, height 25 cm at application)): 98%
